Consider 30 molecules from patent US12098145B2 (Libra Therapeutics, Inc., priority 2022, dated 2024).

In this test the target is T1, TRPML1 (Homo sapiens, UniProt Q9GZU1).
T1 construct: expressed in transfected cells; host or cells: HEK T-REx cells stably expressing GCaMP6f and TRPML1
The test is described as follows: Cellular TRPML1 assay (FLIPR, GCaMP6f calcium read-out). Type of test: cell-based. To be noted: HEKT-REx/GCaMP6f/TRPML1 cells, FLIPR TETRA, kinetic response over 300 seconds; read-out: TRPML1 FLIPR pEC50 (converted). In outline: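 Read-out is GCaMP6f fluorescence over 300 s after compound addition in Ca2+-free Tyrode's buffer, final DMSO 0.5%, on FLIPR Tetra. Cells are HEK T-REx stably co-expressing the indicator and TRPML1, plated 24 h earlier in Optimem + 0.5% FBS and pre-incubated ~10 min at room temperature.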

T1 sequence (Q9GZU1 whole entry): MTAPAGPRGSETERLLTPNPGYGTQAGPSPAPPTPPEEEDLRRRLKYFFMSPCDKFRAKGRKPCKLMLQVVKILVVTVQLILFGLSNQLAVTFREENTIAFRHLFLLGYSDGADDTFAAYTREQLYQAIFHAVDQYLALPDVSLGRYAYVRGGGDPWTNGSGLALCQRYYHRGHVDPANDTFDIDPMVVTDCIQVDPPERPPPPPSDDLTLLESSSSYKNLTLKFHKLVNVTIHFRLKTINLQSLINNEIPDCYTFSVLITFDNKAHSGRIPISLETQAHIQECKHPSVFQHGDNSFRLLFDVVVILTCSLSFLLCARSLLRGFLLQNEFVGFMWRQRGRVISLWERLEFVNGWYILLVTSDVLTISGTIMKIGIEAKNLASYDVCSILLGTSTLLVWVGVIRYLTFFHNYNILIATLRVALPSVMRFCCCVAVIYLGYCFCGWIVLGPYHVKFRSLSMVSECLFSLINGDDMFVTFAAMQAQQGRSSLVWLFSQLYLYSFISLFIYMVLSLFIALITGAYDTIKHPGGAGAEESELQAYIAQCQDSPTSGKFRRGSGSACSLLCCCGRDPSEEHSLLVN

Consider `CCC1(CC)CN(c2nc(C(=O)Nc3cc(F)c(N4CCC5CC5C4)c(F)c3)c(CC(F)(F)F)o2)C1` (stereo not drawn) [Example 211, N-(4-(3-azabicyclo[4.1.0]heptan-3-yl)-3,5-difluorophenyl)-2-(3,3-diethylazetidin-1-yl)-5-(2,2,2-trifluoroethyl)oxazole-4-carboxamide], for which the EC50 is 0.01 to 1 µM.

For the molecule `CC(C)OCc1oc(N2CCCC2)nc1C(=O)Nc1ccc(OC2CCCC2(F)F)c(F)c1` (stereo not drawn) [Example 109], the EC50 is 1 to 10 µM.

Consider `COC1(C)CN(c2nc(C(=O)Nc3cc(O)c(O[C@@H]4C[C@@H]5C[C@@H]5C4)c(F)c3)c(CC(F)(F)F)o2)C1` [Example 267, N-(4-(cis-bicyclo[3.1.0]hexan-3-yloxy)-3-fluoro-5-hydroxyphenyl)-2-(3-methoxy-3-methylazetidin-1-yl)-5-(2,2,2-trifluoroethyl)oxazole-4-carboxamide], for which the EC50 is 1 to 10 µM.

Regarding `COC1CN(c2nc(C(=O)Nc3ccc(OC4CCCC4(F)F)c(F)c3)c(CC(F)(F)F)o2)C1` (stereo not drawn) [Example 8, N-(4-((2,2-difluorocyclopentyl)oxy)-3-fluorophenyl)-2-(3-methoxyazetidin-1-yl)-5-(2,2,2-trifluoroethyl)oxazole-4-carboxamide], the EC50 was 1 to 10 µM.

As for `CCC1(OC)CN(c2nc(C(=O)Nc3cc(F)c(N4CCC5CCCC54)c(F)c3)c(CC(F)(F)F)o2)C1` (stereo not drawn) [Example 205, N-(3,5-difluoro-4-(hexahydrocyclopenta[b]pyrrol-1(2H)-yl)phenyl)-2-(3-ethyl-3-methoxyazetidin-1-yl)-5-(2,2,2-trifluoroethyl)oxazole-4-carboxamide], the EC50 is 1 to 10 µM.

Regarding `O=C(Nc1cc(F)c(OC2CC3(CCC3)C2)c(F)c1)c1nc(N2CCCC2)oc1CC(F)(F)F` [Example 139, N-(3,5-difluoro-4-(spiro[3.3]heptan-2-yloxy)phenyl)-2-(pyrrolidin-1-yl)-5-(2,2,2-trifluoroethyl)oxazole-4-carboxamide], the EC50 is 10 to 100 µM.

Regarding `O=C(Nc1ccc(OCC(F)(F)F)c(F)c1)c1nc(N2CCCC2)oc1CC(F)(F)F` [Example 42, N-(3-fluoro-4-(2,2,2-trifluoroethoxy)phenyl)-2-(pyrrolidin-1-yl)-5-(2,2,2-trifluoroethyl)oxazole-4-carboxamide], the EC50 is 1 to 10 µM.

`O=C(Nc1ccc(OC2CCCC23CC3)c(F)c1)c1nc(N2CCCC2)oc1CC(F)(F)F` (stereo not drawn) [Example 52, N-(3-fluoro-4-(spiro[2.4]heptan-4-yloxy)phenyl)-2-(pyrrolidin-1-yl)-5-(2,2,2-trifluoroethyl)oxazole-4-carboxamide]: the EC50 was 1 to 10 µM.

In the case of `O=C(Nc1ccc(OC2CCCC2(F)F)c(F)c1)c1nc(N2CC3C(C2)C3(F)F)oc1CC(F)(F)F` (stereo not drawn) [Example 10, 2-{6,6-difluoro-3-azabicyclo[3.1.0]hexan-3-yl}-N-{4-[(2,2-difluorocyclopentyl)oxy]-3-fluorophenyl}-5-(2,2,2-trifluoroethyl)oxazole-4-carboxamide], the EC50 was 1 to 10 µM.

Turning to `Cc1oc(N(C)C(C)C)nc1C(=O)Nc1ccc(N2CCCCC2)c(F)c1` [Example 115, N-(3-fluoro-4-(piperidin-1-yl)phenyl)-2-(isopropyl(methyl)amino)-5-methyloxazole-4-carboxamide], the EC50 is 10 to 100 µM.

`Cc1oc(N2CCCC2C)nc1C(=O)Nc1ccc(N2CCCCC2)c(F)c1` (stereo not drawn) [Example 119, N-(3-fluoro-4-(piperidin-1-yl)phenyl)-5-methyl-2-(2-methylpyrrolidin-1-yl)oxazole-4-carboxamide]: the EC50 is 1 to 10 µM.

`COCc1oc(N2CCCC2)nc1C(=O)Nc1cc(F)c(N2CCCCC2)c(F)c1` [Example 102, N-[3,5-difluoro-4-(piperidin-1-yl)phenyl]-5-(methoxymethyl)-2-(pyrrolidin-1-yl) oxazole-4-carboxamide]: the EC50 is 1 to 10 µM.

Take `CCC1(CC)CN(c2nc(C(=O)Nc3cc(F)c(OC4CCCC5(CCC5)C4)c(F)c3)c(CC(F)(F)F)o2)C1` (stereo not drawn) [Example 134, 2-(3,3-diethylazetidin-1-yl)-N-(3,5-difluoro-4-(spiro[3.5]nonan-6-yloxy)phenyl)-5-(2,2,2-trifluoroethyl)oxazole-4-carboxamide]: the EC50 is 1 to 10 µM.

Take `O=C(Nc1ccc(OC2COCC2(F)F)c(F)c1)c1nc(N2CCC3(CC3)C2)oc1CC(F)(F)F` (stereo not drawn) [Example 63, N-(4-((4,4-difluorotetrahydrofuran-3-yl)oxy)-3-fluorophenyl)-2-(5-azaspiro[2.4]heptan-5-yl)-5-(2,2,2-trifluoroethyl)oxazole-4-carboxamide]: the EC50 is 1 to 10 µM.

Turning to `CCc1oc(N2CC(C)(OC)C2)nc1C(=O)Nc1cc(O)c(OC2CC3C[C@@H]3C2)c(Cl)c1` (stereo partly drawn) [Example 271, N-(4-(cis-bicyclo[3.1.0]hexan-3-yloxy)-3-chloro-5-hydroxyphenyl)-5-ethyl-2-(3-methoxy-3-methylazetidin-1-yl)oxazole-4-carboxamide], the EC50 is 1 to 10 µM.

As for `O=C(Nc1ccc(OCCC(F)(F)F)c(F)c1)c1nc(N2CCCC2)oc1CC(F)(F)F` [Example 58, N-(3-fluoro-4-(3,3,3-trifluoropropoxy)phenyl)-2-(pyrrolidin-1-yl)-5-(2,2,2-trifluoroethyl)oxazole-4-carboxamide], the EC50 is 1 to 10 µM.

In the case of `O=C(Nc1cc(F)c(OC2CC3C[C@H]3C2)c(F)c1)c1nc(N2CC3(C2)CC(F)(F)C3)oc1CC(F)(F)F` (stereo partly drawn) [Example 34, N-(4-(cis-bicyclo[3.1.0]hexan-3-yloxy)-3,5-difluorophenyl)-2-(6,6-difluoro-2-azaspiro[3.3]heptan-2-yl)-5-(2,2,2-trifluoroethyl)oxazole-4-carboxamide], the EC50 is 0.01 to 1 µM.

Regarding `CCCN(CCOC)c1nc(C(=O)Nc2cc(F)c(O[C@@H]3C[C@@H]4C[C@@H]4C3)c(F)c2)c(CC(F)(F)F)o1` [Example 152, N-(4-(cis-bicyclo[3.1.0]hexan-3-yloxy)-3,5-difluorophenyl)-2-((2-methoxyethyl)(propyl)amino)-5-(2,2,2-trifluoroethyl)oxazole-4-carboxamide], the EC50 was 10 to 100 µM.

With `CN(c1ccc(NC(=O)c2nc(N3CCCC3)oc2CC(F)(F)F)cc1F)C1CC2CC2C1` (stereo not drawn) [Example 80, N-(4-{bicyclo[3.1.0]hexan-3-yl(methyl)amino}-3-fluorophenyl)-2-(pyrrolidin-1-yl)-5-(2,2,2-trifluoroethyl)oxazole-4-carboxamide], the EC50 is 1 to 10 µM.

For the molecule `CCC1(CC)CN(c2nc(C(=O)Nc3cc(F)c(OC4CCCC5(CC5)C4)c(F)c3)c(CC(F)(F)F)o2)C1` (stereo not drawn) [Example 132, 2-(3,3-diethylazetidin-1-yl)-N-(3,5-difluoro-4-(spiro[2.5]octan-5-yloxy)phenyl)-5-(2,2,2-trifluoroethyl)oxazole-4-carboxamide], the EC50 was 1 to 10 µM.

In the case of `COCc1oc(N2CCCC2)nc1C(=O)Nc1ccc(OC2CCCC2(F)F)c(F)c1` (stereo not drawn) [Example 105, N-(4-((2,2-difluorocyclopentyl)oxy)-3-fluorophenyl)-5-(methoxymethyl)-2-(pyrrolidin-1-yl)oxazole-4-carboxamide], the EC50 is 1 to 10 µM.

`CCC1(CC)CN(c2nc(C(=O)Nc3cc(F)c(OC4CCCOC4)c(F)c3)c(CC(F)(F)F)o2)C1` (stereo not drawn) [Example 137, 2-(3,3-diethylazetidin-1-yl)-N-(3,5-difluoro-4-((tetrahydro-2H-pyran-3-yl)oxy)phenyl)-5-(2,2,2-trifluoroethyl)oxazole-4-carboxamide]: the EC50 is 0.01 to 1 µM.

`O=C(Nc1ccc(OC2CCCC23CCC3)c(F)c1)c1nc(N2CCCC2)oc1CC(F)(F)F` (stereo not drawn) [Example 67, N-(3-fluoro-4-{spiro[3.4]octan-5-yloxy}phenyl)-2-(pyrrolidin-1-yl)-5-(2,2,2-trifluoroethyl)oxazole-4-carboxamide]: the EC50 is 1 to 10 µM.

On to `O=C(Nc1ccc(OC2CCCC2(F)F)c(F)c1)c1nc(N2C3CCC2CC3)oc1CC(F)(F)F` (stereo not drawn) [Example 9, 2-{7-azabicyclo[2.2.1]heptan-7-yl}-N-{4-[(2,2-difluorocyclopentyl)oxy]-3-fluorophenyl}-5-(2,2,2-trifluoroethyl)oxazole-4-carboxamide], for which the EC50 was 1 to 10 µM.

Regarding `O=C(Nc1ccc(OC2CCCC2)c(F)c1)c1nc(N2CCCC2)oc1CC(F)(F)F` [Example 62, N-[4-(cyclopentyloxy)-3-fluorophenyl]-2-(pyrrolidin-1-yl)-5-(2,2,2-trifluoroethyl)oxazole-4-carboxamide], the EC50 is 1 to 10 µM.

As for `CCc1oc(N2CC(C)(OC)C2)nc1C(=O)Nc1ccc(O[C@@H]2C[C@@H]3C[C@@H]3C2)c(C)c1` [Example 248, N-(4-(cis-bicyclo[3.1.0]hexan-3-yloxy)-3-methylphenyl)-5-ethyl-2-(3-methoxy-3-methylazetidin-1-yl)oxazole-4-carboxamide], the EC50 is 1 to 10 µM.

For `COCc1oc(N2CCCC2)nc1C(=O)Nc1ccc(OC2CCCC2)c(F)c1` [Example 101, N-[4-(cyclopentyloxy)-3-fluorophenyl]-5-(methoxymethyl)-2-(pyrrolidin-1-yl)oxazole-4-carboxamide], the EC50 was 10 to 100 µM.

As to `COCc1oc(N2CCCC2C)nc1C(=O)Nc1ccc(N2CCCCC2)c(F)c1` (stereo not drawn) [Example 103, N-(3-fluoro-4-(piperidin-1-yl)phenyl)-5-(methoxymethyl)-2-(2-methylpyrrolidin-1-yl)oxazole-4-carboxamide], the EC50 was 10 to 100 µM.

As to `CCC1(CC)CN(c2nc(C(=O)Nc3cc(F)c(O[C@@H]4C[C@@H]5C[C@@H]5C4)c(F)c3)c(CN3CCC3)o2)C1` [Example 300, 5-(azetidin-1-ylmethyl)-N-(4-(cis-bicyclo[3.1.0]hexan-3-yloxy)-3,5-difluorophenyl)-2-(3,3-diethylazetidin-1-yl)oxazole-4-carboxamide], the EC50 was 1 to 10 µM.

Take `O=C(Nc1ccc(OC2CCC3CC32)c(F)c1)c1nc(N2CCCC2)oc1CC(F)(F)F` (stereo not drawn) [Example 51, N-(4-{bicyclo[3.1.0]hexan-2-yloxy}-3-fluorophenyl)-2-(pyrrolidin-1-yl)-5-(2,2,2-trifluoroethyl)oxazole-4-carboxamide]: the EC50 was 1 to 10 µM.
